Laboratory results published in US20170065564A1, “BIS-CYCLIC GUANIDINE COMPOUND COMPOSITIONS, METHODS OF USE AND TREATMENT THEREOF” (University of South Florida, priority 2014, published 2017).
≈ marks a conversion by molar mass, not a printed value. Where two headings read alike, the source gives them in different places.

What was measured:
Enterobacter cloacae [1] = experiment: MIC micro broth dilution assay; assay type: cell-based; settings: for MIC: Enterobacter cloacae
Outline: (§1)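 Multidrug-resistant clinical ESKAPE isolates were grown overnight (Gram-positives in TSB, Gram-negatives in LB), diluted 1:1,000 and exposed to decreasing compound concentrations in DMF (≤2.0% DMF).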

Enterococcus faecium [2] = experiment: MIC micro broth dilution assay; assay type: cell-based; settings: for MIC: Enterococcus faecium
Outline: as §1

Acinetobacter baumannii = experiment: Minimal bactericidal concentration (MBC) assay; assay type: cell-based; settings: purified compound, read-out: MBC90
Procedure: (§2) Briefly, compound was washed by centrifugation and serial dilution, before plating on Tryptic Soy Agar (TSA). Plates were incubated for 24 hours at 37° C. and cell viability assessed by determining CFU/ml at each concentration, for every compound. Percent recovery was then determined compared to CFU/ml from no drug controls. All concentrations and controls were tested using three biological replicates, alongside two technical replicates for each data point.

Enterobacter cloacae [3] = experiment: Minimal bactericidal concentration (MBC) assay; assay type: cell-based; settings: Enterobacter cloacae; purified compound; read-out: MBC90
Procedure: as §2

Enterococcus faecium [4] = experiment: Minimal bactericidal concentration (MBC) assay; assay type: cell-based; settings: purified compound, read-out: MBC90
Procedure: as §2

Klebsiella pneumoniae = experiment: Minimal bactericidal concentration (MBC) assay; assay type: cell-based; settings: purified compound, read-out: MBC90
Procedure: as §2

Pseudomonas aeruginosa = experiment: Minimal bactericidal concentration (MBC) assay; assay type: cell-based; settings: Pseudomonas aeruginosa; purified compound; read-out: MBC90
Procedure: as §2

Staphylococcus aureus = experiment: Minimal bactericidal concentration (MBC) assay; assay type: cell-based; settings: purified compound, read-out: MBC90
Procedure: as §2

A. baumannii = experiment: Resistance serial passage assay; assay type: cell-based, Acinetobacter baumannii; settings: 8 passages, concentration doubled each day
Procedure: ESKAPE pathogens were grown overnight in liquid media at 37° C. These cultures were then diluted 1:100 in fresh media, and seeded into a 96-well plate. Lead bis-cyclic guanidines or control agents were added to respective wells at half MIC concentrations. Plates were then incubated for 24 hours at 37° C., with bacteria removed from these cultures on the following day, to inoculate fresh media (1:100 dilution) containing compounds at a 2-fold higher concentrations. These were then grown overnight, and the procedure repeated for a total of eight days. […] Each experiment was performed in triplicate, yielding identical results.

E. cloacae = assay type: cell-based, Enterobacter cloacae; settings: 8 passages, concentration doubled each day
Procedure: ESKAPE pathogens were grown overnight in liquid media at 37° C. These cultures were then diluted 1:100 in fresh media, and seeded into a 96-well plate. Lead bis-cyclic guanidines or control agents were added to respective wells at half MIC concentrations. […] These were then grown overnight, and the procedure repeated for a total of eight days.

[5] = system: Staphylococcus aureus (USA300 strain FPR3757); experiment: Murine model of lethal peritonitis; assay type: in vivo, mice; settings: 2× MIC, I.M., 1 h post-infection, six mice per group
Procedure: Using MRSA as a representative ESKAPE organism, we infected mice with 1×10^8 bacterial cells in 5% mucin via intraperitoneal injection. At 1 h post-infection, mice were then I.V. injected with either vancomycin (positive control), or I.M. with our front runner compounds.
Six mice per group were injected with 1×10^8 CFU ml^−1 of Staphylococcus aureus (USA300 strain FPR3757) in PBS containing 5% mucin. […] Mice were monitored twice daily for five days to assess mortality. The clinical endpoint of this study was when the mice reached a pre-moribund state. Characteristics of pre-moribund state include: hunched posture, rapid, shallow and/or labored breathing, ruffled fur, lethargy, failure to respond to stimuli, soiled anogenital area, paralysis, paresis, head tilt, circling, vocalizations, non-purposeful movements and/or were unable to eat or drink. Those mice reaching this state prior to the completion of the 5 day infection period were euthanized. The number of mice surviving between control and treatment groups was compared and analyzed for statistical significance using a log rank test.

CCCCCCCN1C(=N)N(CCCC[C@H]2CNC(=N)N2CCc2cccc(C(F)(F)F)c2)C[C@@H]1CC1CCCCC1 [Compound 7]
stacked score activity, 100/MIC, E (Enterobacter cloacae [1]; E. cloacae): 20
MIC (Enterobacter cloacae [1]; E. cloacae isolate 1404): 2 µM (≈ 1.18 µg/mL)
MIC (Enterobacter cloacae [1]; E. cloacae isolate 1405): 2 µM (≈ 1.18 µg/mL)
MIC (Enterobacter cloacae [1]; E. cloacae isolate 1430): 2 µM (≈ 1.18 µg/mL)
MIC (Enterobacter cloacae [1]; E. cloacae isolate 1431): 2 µM (≈ 1.18 µg/mL)
MIC (Enterobacter cloacae [1]; E. cloacae isolate 1445): 2 µM (≈ 1.18 µg/mL)
MIC (Enterobacter cloacae [1]; E. cloacae isolate 1446): 5 µM (≈ 2.95 µg/mL)
MIC (Enterobacter cloacae [1]; E. cloacae isolate 1447): 2 µM (≈ 1.18 µg/mL)
MIC (Enterobacter cloacae [1]; E. cloacae isolate 1448): 2 µM (≈ 1.18 µg/mL)
MIC (Enterobacter cloacae [1]; E. cloacae isolate 1454): 2 µM (≈ 1.18 µg/mL)
MIC (Enterobacter cloacae [1]; E. cloacae isolate 1455): 2 µM (≈ 1.18 µg/mL)
MIC (Enterobacter cloacae [1]; purified compound, Table 1): 1.52 µM (≈ 0.898 µg/mL)
concentration inhibiting 90% of isolates (Enterobacter cloacae [1]; panel of E. cloacae clinical isolates): 2 µM
stacked score activity, 100/MIC, E (Enterococcus faecium [2]; E. faecium): 33
MIC (Enterococcus faecium [2]; E. faecium isolate 1406): 2 µM (≈ 1.18 µg/mL)
MIC (Enterococcus faecium [2]; E. faecium isolate 1407): 2 µM (≈ 1.18 µg/mL)
MIC (Enterococcus faecium [2]; E. faecium isolate 1432): 2 µM (≈ 1.18 µg/mL)
MIC (Enterococcus faecium [2]; E. faecium isolate 1438): 2 µM (≈ 1.18 µg/mL)
MIC (Enterococcus faecium [2]; E. faecium isolate 1439): 2 µM (≈ 1.18 µg/mL)
MIC (Enterococcus faecium [2]; E. faecium isolate 1443): 2 µM (≈ 1.18 µg/mL)
MIC (Enterococcus faecium [2]; E. faecium isolate 1444): 2 µM (≈ 1.18 µg/mL)
MIC (Enterococcus faecium [2]; E. faecium isolate 1449): 2 µM (≈ 1.18 µg/mL)
MIC (Enterococcus faecium [2]; E. faecium isolate 1450): 2 µM (≈ 1.18 µg/mL)
MIC (Enterococcus faecium [2]; E. faecium isolate 1451): 2 µM (≈ 1.18 µg/mL)
MIC (Enterococcus faecium [2]; purified compound, Table 1): 1.52 µM (≈ 0.898 µg/mL)
MBC (Acinetobacter baumannii; Acinetobacter baumannii): 2.16 to 3.28 µM (≈ 1.28 to 1.94 µg/mL)
MBC (Acinetobacter baumannii): 3.23 µM (≈ 1.91 µg/mL)
MBC (Enterobacter cloacae [3]): 6.36 µM (≈ 3.76 µg/mL)
MBC (Enterococcus faecium [4]; Enterococcus faecium): 2.16 to 3.28 µM (≈ 1.28 to 1.94 µg/mL)
MBC (Enterococcus faecium [4]): 3.27 µM (≈ 1.93 µg/mL)
MBC (Klebsiella pneumoniae; Klebsiella pneumoniae): 2.16 to 3.28 µM (≈ 1.28 to 1.94 µg/mL)
MBC (Klebsiella pneumoniae): 2.16 µM (≈ 1.28 µg/mL)
MBC (Pseudomonas aeruginosa): 13.7 µM (≈ 8.12 µg/mL)
MBC (Staphylococcus aureus; Staphylococcus aureus): 2.16 to 3.28 µM (≈ 1.28 to 1.94 µg/mL)
MBC (Staphylococcus aureus): 3.28 µM (≈ 1.94 µg/mL)
increase in MIC after serial passage (A. baumannii): 8 fold
increase in MIC after serial passage (E. cloacae): 8 fold
survival of infected mice over 5 day infection period [5]: 1 mouse lost on each of days 2 and 4
